This is an account of results in patent publication US20060217390A1, “Cycloalkl, aryl and heteroaryl amino isothiazoles for the treatment of Hepatitis C virus” (priority 2005, published 2006).

Read-outs that look alike come from different tables or passages of the source.

Data set [1] has as its system HCV Con1 subgenomic replicon in Huh-7 cells (NK/luc-ubi-neo). In words: HCV replicon assay (luciferase reporter). The class given is cell-based. The following applies: anti-HCV activity, class symbols; read-out: Range of EC50 in HCV replicon assay. As for the experimental part:
A human hepatoma cell line (Huh-7) containing replicating HCV Con1 subgenomic replicon with a luciferase reporter gene (luc-ubi-neo) was used to evaluate anti-HCV activity of the compounds. In this assay, the level of luciferase signal correlates directly with the viral RNA replication. The HCV replicon-reporter cell line (NK/luc-ubi-neo) was cultured in DMEM medium supplemented with 10% fetal bovine serum and 0.5 mg/ml Geneticin (G418). Cells were maintained in a subconfluent state to ensure high levels of HCV replicon RNA synthesis.
To evaluate the antiviral activity of compounds, serial dilutions were prepared with concentrations ranging from 0.14 to 300 μM. Diluted compounds were transferred to a 96-well plate followed by the addition of replicon cells (6000 cells per well). Cells were incubated with the compounds for 48 hours after which luciferase activity was measured.

The test system of the next data set is Huh-7 cells. From the text: A Huh-7 cell line carrying a luciferase reporter gene (driven by a HIV LTR promoter) stably integrated into the chromosome was used to analyze the cytotoxic effect of the selected compounds. This cell line (LTR-luc) was maintained in DMEM medium with 10% FBS. Design of the cytotoxicity assay was similar to that of the HCV replicon assay.

Setting [2] is: read-out: Range of CC50 in cytotoxicity assay, cytotoxicity, class symbols.

A word on the EC50: it is the concentration giving half of the maximal effect. For orientation: CC50 means the concentration giving 50% cytotoxicity. As for `N#Cc1c(Nc2ccccc2Cl)s[nH]c1=O`, the concentration for a half-maximal effect (EC50) in data set [1] is 10 to 50 µM. The same compound returned a CC50 in the data set with Huh-7 cells greater than 50 µM.
In the same order, the values of `COc1ccc(Nc2s[nH]c(=O)c2C#N)cc1` are 10 to 50 µM and greater than 50 µM.
In the same order, the values of `COc1ccccc1Nc1s[nH]c(=O)c1C#N` are 10 to 50 µM and greater than 50 µM.
In the same order, the values of `N#Cc1c(Nc2ccccc2C(F)(F)F)s[nH]c1=O` are 10 to 50 µM and greater than 50 µM.
Take `CC(C)c1cccc(C(C)C)c1Nc1s[nH]c(=O)c1C#N`: the EC50 in data set [1] was 10 to 50 µM. The compound also showed a CC50 with Huh-7 cells greater than 50 µM.
For `CC(C)c1ccccc1Nc1s[nH]c(=O)c1C#N`, the EC50 in data set [1] is greater than 50 µM. Moreover, in the data set with Huh-7 cells, the CC50 is greater than 50 µM.
For the compound `N#Cc1c(Nc2ccc(F)cc2)s[nH]c1=O`, in data set [1], the EC50 was in the range of 10 to 50 µM. Also, in the data set with Huh-7 cells, the CC50 is greater than 50 µM.
Take `COC(=O)c1cccc(Nc2s[nH]c(=O)c2C#N)c1`: in data set [1], the EC50 is greater than 50 µM. The CC50 with Huh-7 cells is greater than 50 µM.
Consider `COC(=O)c1ccc(Nc2s[nH]c(=O)c2C#N)cc1`, for which the EC50 in data set [1] lay within 10 to 50 µM. In the data set with Huh-7 cells (setting [2]), the CC50 was greater than 50 µM.
In the case of `CN(C)c1ccc2ccccc2c1Nc1s[nH]c(=O)c1C#N`, the EC50 in data set [1] is greater than 50 µM. Further, the CC50 in the data set on Huh-7 cells (setting [2]) was greater than 50 µM.
For the compound `N#Cc1c(NC2CCc3ccccc32)s[nH]c1=O` (stereo not shown), in data set [1], the half-maximal effective concentration (EC50) was 1 to 10 µM. The compound further gave a CC50 in the data set on Huh-7 cells greater than 50 µM.
For the compound `CCCC1CCC(c2ccc(Nc3s[nH]c(=O)c3C#N)cc2)CC1` (stereo not shown), the EC50 in data set [1] was in the range of 1 to 10 µM. For the same compound, in the data set on Huh-7 cells (setting [2]), the CC50 is less than 50 µM.
Consider `N#Cc1c(Nc2ccc(C(=O)c3ccccc3)cc2)s[nH]c1=O`, for which the EC50 in data set [1] was in the range of 10 to 50 µM. Moreover, the CC50 in the data set with Huh-7 cells (setting [2]) is greater than 50 µM.
With `N#Cc1c(Nc2ccc(Cc3ccccc3)cc2)s[nH]c1=O`, in data set [1], the EC50 was greater than 50 µM. Besides, the CC50 with Huh-7 cells is greater than 50 µM.
In the case of `N#Cc1c(Nc2ccc(S(=O)(=O)Nc3ccccc3)cc2)s[nH]c1=O`, the EC50 in data set [1] is greater than 50 µM. Moreover, the CC50 in the data set on Huh-7 cells was greater than 50 µM.
As for `Cc1cccc(C)c1Sc1ccc(Nc2s[nH]c(=O)c2C#N)cc1`, in data set [1], the EC50 fell in the range of 1 to 10 µM. The CC50 in the data set on Huh-7 cells (setting [2]) is less than 50 µM.
As for `N#Cc1c(NCCc2ccc(O)cc2)s[nH]c1=O`, the EC50 in data set [1] is greater than 50 µM. The CC50 with Huh-7 cells was greater than 50 µM.
With `N#Cc1c(NCCc2cccs2)s[nH]c1=O`, in data set [1], the EC50 is greater than 50 µM. Moreover, the CC50 in the data set on Huh-7 cells was greater than 50 µM.
`N#Cc1c(Nc2cc(F)c(Br)c(F)c2)s[nH]c1=O`: the EC50 in data set [1] is less than 1 µM. For the same compound, the CC50 in the data set on Huh-7 cells (setting [2]) was greater than 50 µM.
As to `N#Cc1c(Nc2cc(Cl)c(Cl)c(Cl)c2)s[nH]c1=O`, the 50% effective concentration (EC50) in data set [1] is less than 1 µM. In addition, the CC50 with Huh-7 cells was less than 50 µM.
On to `N#Cc1c(Nc2ccc(Cl)c(Cl)c2)s[nH]c1=O`, for which the EC50 in data set [1] is less than 1 µM. In the data set with Huh-7 cells, the CC50 was greater than 50 µM.
For `N#Cc1c(Nc2ccc(Br)c(F)c2)s[nH]c1=O`, the EC50 in data set [1] is less than 1 µM. Besides, the CC50 with Huh-7 cells (setting [2]) is greater than 50 µM.
`N#Cc1c(Nc2ccc(Br)c(Cl)c2)s[nH]c1=O`: in data set [1], the EC50 was less than 1 µM. This compound gave a CC50 with Huh-7 cells greater than 50 µM.
On to `N#Cc1c(Nc2cc(Br)cc(C(F)(F)F)c2)s[nH]c1=O`, for which, in data set [1], the EC50 was less than 1 µM. For the same compound, in the data set on Huh-7 cells (setting [2]), the CC50 is greater than 50 µM.
In the same order, the values of `N#Cc1c(Nc2ccc(Br)cn2)s[nH]c1=O` are 10 to 50 µM and greater than 50 µM.
In the case of `N#Cc1c(Nc2ccc(Br)nc2)s[nH]c1=O`, in data set [1], the EC50 is 10 to 50 µM. In the data set on Huh-7 cells, the CC50 is greater than 50 µM.
`N#Cc1c(Nc2ccc(Cl)cn2)s[nH]c1=O`: in data set [1], the EC50 was in the range of 10 to 50 µM. Further, in the data set on Huh-7 cells (setting [2]), the CC50 was greater than 50 µM.
For `N#Cc1c(Nc2ccnc(Cl)c2)s[nH]c1=O`, the EC50 in data set [1] was in the range of 10 to 50 µM. Also, the CC50 in the data set with Huh-7 cells is greater than 50 µM.
Regarding `N#Cc1c(Nc2ccc(Br)c(C(F)(F)F)c2)s[nH]c1=O`, the EC50 in data set [1] lay in the range of 1 to 10 µM. Also, the CC50 with Huh-7 cells (setting [2]) is greater than 50 µM.
For `N#Cc1c(Nc2cccc(Br)n2)s[nH]c1=O` the same measures were 10 to 50 µM and greater than 50 µM.
Consider `N#Cc1c(Nc2cc(Cl)nc(Cl)c2)s[nH]c1=O`, for which the EC50 in data set [1] is 1 to 10 µM. In addition, the CC50 in the data set on Huh-7 cells (setting [2]) was less than 50 µM.
In the case of `N#Cc1c(Nc2ccc(C(F)(F)F)cn2)s[nH]c1=O`, the EC50 in data set [1] is 10 to 50 µM. For the same compound, the cytotoxic concentration (CC50) with Huh-7 cells is greater than 50 µM.
